Columns and labels:
[1] = DRUGMATRIX: ATPase, Na+/K+ enzyme inhibition (substrate: ATP); type: tissue-based, Sus scrofa, Heart; settings: Not Active = under 50% inhibition at 10 µM
Histamine H2 receptor = Histamine H2 receptor (Homo sapiens, UniProt P25021); type: cell membranes, CHO-K1, Membrane; settings: cho-k1; further: in other assays of this panel Not Active means under 50% inhibition at 10 µM
[2] = target: T1, Muscarinic acetylcholine receptor M2 (Homo sapiens, UniProt P08172); type: cell membranes, CHO-K1, Membrane; settings: cho-k1; further: in other assays of this panel Not Active means under 50% inhibition at 10 µM
T1 sequence (P08172 whole entry): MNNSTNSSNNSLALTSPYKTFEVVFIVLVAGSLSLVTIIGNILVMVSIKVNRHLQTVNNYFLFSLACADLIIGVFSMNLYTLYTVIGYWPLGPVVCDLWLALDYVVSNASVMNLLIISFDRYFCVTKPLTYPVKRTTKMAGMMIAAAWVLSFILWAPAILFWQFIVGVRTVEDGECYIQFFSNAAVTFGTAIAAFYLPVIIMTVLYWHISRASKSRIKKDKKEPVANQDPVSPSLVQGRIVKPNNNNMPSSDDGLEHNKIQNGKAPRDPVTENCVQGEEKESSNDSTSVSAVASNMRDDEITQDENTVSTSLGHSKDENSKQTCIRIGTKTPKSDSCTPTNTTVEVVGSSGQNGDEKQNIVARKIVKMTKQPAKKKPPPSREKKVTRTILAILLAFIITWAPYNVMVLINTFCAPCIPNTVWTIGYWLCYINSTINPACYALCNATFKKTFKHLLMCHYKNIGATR

[3] = target: T2, Neuropeptide Y receptor type 2 (Homo sapiens, UniProt P49146); type: cell membranes, KAN-TS, Membrane; settings: kan-ts; further: in other assays of this panel Not Active means under 50% inhibition at 10 µM
T2 sequence (P49146 whole entry): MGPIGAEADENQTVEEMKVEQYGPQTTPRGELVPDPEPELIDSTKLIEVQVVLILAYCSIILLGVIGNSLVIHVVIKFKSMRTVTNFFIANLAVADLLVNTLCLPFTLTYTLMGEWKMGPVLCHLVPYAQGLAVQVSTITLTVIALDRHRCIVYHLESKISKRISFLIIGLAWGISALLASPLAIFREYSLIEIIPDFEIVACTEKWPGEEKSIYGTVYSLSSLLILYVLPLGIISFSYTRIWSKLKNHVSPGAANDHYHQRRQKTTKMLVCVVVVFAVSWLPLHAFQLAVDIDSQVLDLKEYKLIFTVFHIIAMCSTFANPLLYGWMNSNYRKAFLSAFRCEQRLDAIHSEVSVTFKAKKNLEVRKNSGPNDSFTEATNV

[4] = target: Matrix metalloproteinase-9 (Homo sapiens, UniProt P14780); experiment: biochemical; type: cell-based;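 further: inhibition of isolated MMP-9 enzyme activity toward a synthetic peptide substrate, from the DrugMatrix protease screening panel; in other assays of this panel Not Active means under 50% inhibition at 10 µM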
Matrix metalloproteinase-9, sequence (P14780 whole entry): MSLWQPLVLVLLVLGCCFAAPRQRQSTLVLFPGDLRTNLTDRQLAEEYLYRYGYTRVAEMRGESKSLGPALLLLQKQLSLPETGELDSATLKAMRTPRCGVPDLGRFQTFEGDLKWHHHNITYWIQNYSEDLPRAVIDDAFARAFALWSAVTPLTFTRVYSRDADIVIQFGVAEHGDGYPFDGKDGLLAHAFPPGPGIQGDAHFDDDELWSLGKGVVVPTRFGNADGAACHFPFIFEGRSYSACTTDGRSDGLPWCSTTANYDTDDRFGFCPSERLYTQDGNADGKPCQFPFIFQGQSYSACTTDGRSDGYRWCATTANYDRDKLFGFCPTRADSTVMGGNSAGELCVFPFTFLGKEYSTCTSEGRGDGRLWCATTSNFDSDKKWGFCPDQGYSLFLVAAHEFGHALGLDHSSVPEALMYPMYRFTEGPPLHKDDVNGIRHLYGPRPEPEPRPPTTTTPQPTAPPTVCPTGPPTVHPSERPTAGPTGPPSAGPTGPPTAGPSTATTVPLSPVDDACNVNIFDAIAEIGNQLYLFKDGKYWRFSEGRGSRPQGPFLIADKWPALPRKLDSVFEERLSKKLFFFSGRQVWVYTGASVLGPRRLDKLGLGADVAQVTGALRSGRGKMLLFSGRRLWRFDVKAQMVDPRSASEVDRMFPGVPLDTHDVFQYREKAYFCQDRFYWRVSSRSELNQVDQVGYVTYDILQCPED

Cytochrome P450 2D6 = Cytochrome P450 2D6 (Homo sapiens, UniProt P10635); settings: bti-tn-5b1-4; further: in other assays of this panel Not Active means under 50% inhibition at 10 µM
Cytochrome P450 2D6, sequence (P10635 whole entry): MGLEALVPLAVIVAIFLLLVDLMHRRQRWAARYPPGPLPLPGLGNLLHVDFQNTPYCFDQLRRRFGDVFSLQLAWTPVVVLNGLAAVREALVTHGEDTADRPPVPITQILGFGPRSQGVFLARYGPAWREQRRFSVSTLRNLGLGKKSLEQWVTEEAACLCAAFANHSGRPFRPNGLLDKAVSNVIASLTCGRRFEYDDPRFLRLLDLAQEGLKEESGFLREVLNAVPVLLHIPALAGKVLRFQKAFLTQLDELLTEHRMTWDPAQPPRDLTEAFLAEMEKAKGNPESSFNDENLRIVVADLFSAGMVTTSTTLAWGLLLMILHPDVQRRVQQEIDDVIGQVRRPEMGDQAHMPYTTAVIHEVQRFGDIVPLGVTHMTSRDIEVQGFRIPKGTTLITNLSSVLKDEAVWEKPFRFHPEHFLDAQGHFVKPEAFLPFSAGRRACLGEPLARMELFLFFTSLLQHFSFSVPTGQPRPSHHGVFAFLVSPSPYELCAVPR

Histamine H2 receptor, sequence (P25021 whole entry): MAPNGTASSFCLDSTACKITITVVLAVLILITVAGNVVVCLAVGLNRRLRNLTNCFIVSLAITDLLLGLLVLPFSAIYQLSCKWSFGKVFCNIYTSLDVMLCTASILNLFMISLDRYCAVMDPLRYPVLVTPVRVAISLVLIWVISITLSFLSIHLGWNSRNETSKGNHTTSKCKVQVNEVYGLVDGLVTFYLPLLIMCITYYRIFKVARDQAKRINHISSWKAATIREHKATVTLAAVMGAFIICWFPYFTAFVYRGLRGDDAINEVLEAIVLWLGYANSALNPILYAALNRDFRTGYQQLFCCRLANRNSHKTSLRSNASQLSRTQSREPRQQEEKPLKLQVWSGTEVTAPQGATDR

Nc1cc(N2CCCCC2)nc(N)[n+]1[O-] [MINOXIDIL]
Not Active: IC50 [1] | Ki [1] | IC50 (Histamine H2 receptor) | IC50 [2] | IC50 [3] | IC50 [4] | IC50 (Cytochrome P450 2D6) | Ki (Cytochrome P450 2D6)

CO[C@H]1/C=C/O[C@@]2(C)Oc3c(C)c(O)c4c(O)c(c(/C=N/N5CCN(C6CCCC6)CC5)c(O)c4c3C2=O)NC(=O)/C(C)=C\C=C\[C@H](C)[C@H](O)[C@@H](C)[C@@H](O)[C@@H](C)[C@H](OC(C)=O)[C@@H]1C [RIFAPENTINE]
Not Active: IC50 [1] | Ki [1] | IC50 (Histamine H2 receptor) | IC50 [2] | IC50 [3] | IC50 [4] | IC50 (Cytochrome P450 2D6) | Ki (Cytochrome P450 2D6)

CCCCOc1cc(CC2CNC(=O)N2)ccc1OC (stereo not drawn) [RO-201724]
Not Active: IC50 [1] | Ki [1] | IC50 (Histamine H2 receptor) | IC50 [2] | IC50 [3] | IC50 [4] | IC50 (Cytochrome P450 2D6) | Ki (Cytochrome P450 2D6)

CC[C@@H](C(=O)[C@@H](C)[C@@H](O)[C@H](C)[C@@H]1O[C@@H]([C@@H](CC)C(=O)O)CC[C@@H]1C)[C@H]1O[C@]2(C=C[C@@H](O)[C@]3(CC[C@@](C)([C@H]4CC[C@](O)(CC)[C@H](C)O4)O3)O2)[C@H](C)C[C@@H]1C [SALINOMYCIN]
Not Active: IC50 [1] | Ki [1] | IC50 (Histamine H2 receptor) | IC50 [2] | IC50 [3] | IC50 [4] | IC50 (Cytochrome P450 2D6) | Ki (Cytochrome P450 2D6)

O=C(Oc1ccccc1C(=O)O)c1ccccc1O [SALSALATE]
Not Active: IC50 [1] | Ki [1] | IC50 (Histamine H2 receptor) | IC50 [2] | IC50 [3] | IC50 [4] | IC50 (Cytochrome P450 2D6) | Ki (Cytochrome P450 2D6)

O=C(O)c1cn(-c2ccc(F)cc2)c2cc(N3CCNCC3)c(F)cc2c1=O [SARAFLOXACIN]
Not Active: IC50 [1] | Ki [1] | IC50 (Histamine H2 receptor) | IC50 [2] | IC50 [3] | IC50 [4] | IC50 (Cytochrome P450 2D6) | Ki (Cytochrome P450 2D6)

CC(C)NCC(O)c1ccc(NS(C)(=O)=O)cc1 (stereo not drawn) [SOTALOL]
Not Active: IC50 [1] | Ki [1] | IC50 (Histamine H2 receptor) | IC50 [2] | IC50 [3] | IC50 [4] | IC50 (Cytochrome P450 2D6) | Ki (Cytochrome P450 2D6)

O.O.O.O.O.O.[Cl-].[Cl-].[Sr+2] [STRONTIUM CHLORIDE HEXAHYDRATE]
Not Active: IC50 [1] | Ki [1] | IC50 (Histamine H2 receptor) | IC50 [2] | IC50 [3] | IC50 [4] | IC50 (Cytochrome P450 2D6) | Ki (Cytochrome P450 2D6)

O=C1C(CC[S+]([O-])c2ccccc2)C(=O)N(c2ccccc2)N1c1ccccc1 (stereo not drawn) [SULFINPYRAZONE]
Not Active: IC50 [1] | Ki [1] | IC50 (Histamine H2 receptor) | IC50 [2] | IC50 [3] | IC50 [4] | IC50 (Cytochrome P450 2D6) | Ki (Cytochrome P450 2D6)

NC(=O)N1C(=O)/C(=C(\O)c2cccs2)c2cc(Cl)ccc21 [TENIDAP]
Not Active: IC50 [1] | Ki [1] | IC50 (Histamine H2 receptor) | IC50 [2] | IC50 [3] | IC50 [4] | IC50 (Cytochrome P450 2D6) | Ki (Cytochrome P450 2D6)

COc1cc2nc(N3CCN(C(=O)C4CCCO4)CC3)nc(N)c2cc1OC (stereo not drawn) [TERAZOSIN]
Not Active: IC50 [1] | Ki [1] | IC50 (Histamine H2 receptor) | IC50 [2] | IC50 [3] | IC50 [4] | IC50 (Cytochrome P450 2D6) | Ki (Cytochrome P450 2D6)

Cn1c(=O)c2nc[nH]c2n(C)c1=O.O [THEOPHYLLINE]
Not Active: IC50 [1] | Ki [1] | IC50 (Histamine H2 receptor) | IC50 [2] | IC50 [3] | IC50 [4] | IC50 (Cytochrome P450 2D6) | Ki (Cytochrome P450 2D6)

CS(=O)(=O)c1ccc([C@@H](O)[C@@H](CO)NC(=O)C(Cl)Cl)cc1 [THIAMPHENICOL]
Not Active: IC50 [1] | Ki [1] | IC50 (Histamine H2 receptor) | IC50 [2] | IC50 [3] | IC50 [4] | IC50 (Cytochrome P450 2D6) | Ki (Cytochrome P450 2D6)

CCN(CC)CCNC(=O)c1cc(S(C)(=O)=O)ccc1OC [TIAPRIDE]
Not Active: IC50 [1] | Ki [1] | IC50 (Histamine H2 receptor) | IC50 [2] | IC50 [3] | IC50 [4] | IC50 (Cytochrome P450 2D6) | Ki (Cytochrome P450 2D6)

NC1CCN(c2nc3c(cc2F)c(=O)c(C(=O)O)cn3-c2ccc(F)cc2F)C1 (stereo not drawn) [TOSUFLOXACIN]
Not Active: IC50 [1] | Ki [1] | IC50 (Histamine H2 receptor) | IC50 [2] | IC50 [3] | IC50 [4] | IC50 (Cytochrome P450 2D6) | Ki (Cytochrome P450 2D6)

O=C(Nc1ccc(Br)cc1)c1cc(Br)cc(Br)c1O [TRIBROMSALAN]
Not Active: IC50 [1] | Ki [1] | IC50 (Histamine H2 receptor) | IC50 [2] | IC50 [3] | IC50 [4] | IC50 (Cytochrome P450 2D6) | Ki (Cytochrome P450 2D6)

CC(c1cc2ccccc2s1)N(O)C(N)=O (stereo not drawn) [ZILEUTON]
Not Active: IC50 [1] | Ki [1] | IC50 (Histamine H2 receptor) | IC50 [2] | IC50 [3] | IC50 [4] | IC50 (Cytochrome P450 2D6) | Ki (Cytochrome P450 2D6)

MANGANESE CHLORIDE ANHYDROUS
Not Active: IC50 [1] | Ki [1] | IC50 (Histamine H2 receptor) | Ki (Histamine H2 receptor) | IC50 [2] | Ki [2] | IC50 [3] | Ki [3] | IC50 [4] | Ki [4] | IC50 (Cytochrome P450 2D6) | Ki (Cytochrome P450 2D6)

Source: ChEMBL document CHEMBL1909046, “DrugMatrix in vitro pharmacology data”
